Reference: US4616025A, “Thiazolidine derivatives, process for the preparation and pharmaceutical compositions thereof” (Richter Gedeon Vegyeszeti Gyar RT, priority 1983, dated 1986)

What was measured:
ulceration = settings: rheumatic patients simultaneously suffering from ulceration; cited from earlier work
[1] = tested on: indomethacin-induced intestinal ulceration; assay: Indomethacin-induced fatal intestinal ulceration (15 mg/kg p.o.), inflation technique; format: in vivo, rat (female H-Wistar); settings: indomethacin 15 + 150 mg/kg p.o.
Method: Indomethacin-induced intestinal ulceration
Of the non-steroidal antiinflammatory agents indomethacin has not only a gastric-ulcer inducing side-effect but may also cause serious intestinal ulceration. Depending on the dose, the intestinal ulceration may be fatal, peritonitis due to intestinal perforations kills the animals.
(a) Indomethacin-induced fatal intestinal ulceration
Non-fasted, female H-Winstar rats, weighing 120-150 g each were treated orally with a 15 mg/kg dose of indomethacin (in Tween 80 suspension). […] Under these conditions it requires about 48 to 72 hours to detect intenstinal ulceration.
(§1) To evaluate the development of intestinal ulcers the so-called inflation technique by Ezer and Szporny (J. Pharm. Pharmacol. 27, 866 (1975)) was employed. By this method the progress of ulceration can be monitored quantitatively. The tensile strength of the intestinal wall expressed in mmHg weakens gradually parallel with the progress of ulceration.

[2] = tested on: indomethacin-induced non-fatal intestinal ulceration; assay: Indomethacin-induced (7.5 mg/kg p.o.) non-fatal intestinal ulceration, post-treatment, inflation technique; format: in vivo, rat (H-Wistar)
Method: as §1
(b) Indomethacin-induced non-fatal ulceration
Non-fasted H-Wistar rats weighing 120 to 150 g each were administered 7.5 mg/kg indomethacin orally, to induce non-fatal intestinal ulceration. 4, 24 and 48 hours, respectively, after the indomethacin treatment the animals were treated with the test material orally. The animals were killed 24 hours after the last treatment and 72 hours after the ulcer-induction performed with indomethacin, respectively. Ulceration was evaluated by the inflation technique.

[3] = tested on: intestinal ulceration induced by indomethacin; settings: literature; cited from earlier work
[4] = tested on: gastric necrosis induced by absolute alcohol; assay: Gastric necrosis induced by absolute alcohol (cytoprotection); format: in vivo, rat (female H-Wistar)
Method: Gastric necrosis induced by absolute alcohol
Water was allowed ad libitum. The compounds to be tested were administered orally, 30 minutes prior to the administration of 0.5 ml of ethanol/100 g of body weight through a canula. Two hours later the animals were killed by overdosing ether. Stomachs were removed and opened along the major curvature. […] Degree of the cytoprotection was expressed in % related to the control.

For `CN/C(=N/CCSCc1nc[nH]c1C)NC#N` [Cimetidine, N-cyano-N'-methyl-N"-2-[(5-methyl-imidazole-4-yl)-methylthio]-ethyl-guanidine, reference compound], the “Outcome of simultaneous administration of cimetidine and indomethacin” value (ulceration) is given as “perforation in rheumatic patients”, the “Intestinal wall resistency in % of normal” value [1] is given as 21 % of normal and the “T.s. of intestinal wall 72 hours after treatment” value [1] is given as 47 ± 25 mm Hg. The “T.s. of intestinal wall 72 hours after indomethacin treatment” value ([2]; 7.5 + 3 × 50 mg/kg p.o., 4, 24, 48 hours after indomethacin) was 184 ± 7 mm Hg, the “T.s. of intestinal wall 72 hours after indomethacin treatment” value ([2]; 7.5 + 3 × 100 mg/kg p.o., 4, 24, 48 hours after indomethacin) was 197 ± 10 mm Hg and the “Non-fatal intestinal ulceration post-treatment, in words” value ([2]; post-treatment 4, 24 and 48 hours after indomethacin 7.5 mg/kg p.o.) was “ineffective”. The “Indomethacin-induced intestinal ulceration, in words” value [3] was “cannot inhibit intestinal ulceration induced by indomethacin”, the Cytoprotection ([4]; 6.0 mg/kg p.o.) was 44% and the “Length of average lesion” value ([4]; 6.0 mg/kg p.o.) was 46.0 ± 10 mm/stomach. For the same molecule, the Cytoprotection ([4]; 12.0 mg/kg p.o.) was 24%, the “Length of average lesion” value ([4]; 12.0 mg/kg p.o.) was 63.0 ± 18 mm/stomach and the Cytoprotection ([4]; 25.0 mg/kg p.o.) was 33%. The “Length of average lesion” value ([4]; 25.0 mg/kg p.o.) was 55.0 ± 12 mm/stomach, the Cytoprotection ([4]; 50.0 mg/kg p.o.) was 59% and the “Length of average lesion” value ([4]; 50.0 mg/kg p.o.) was 34.0 ± 10 mm/stomach. The Cytoprotection ([4]; 100.0 mg/kg p.o.) was 43% and the “Length of average lesion” value ([4]; 100.0 mg/kg p.o.) was 47.0 ± 16 mm/stomach.
